Reference: patent US9066516B2, “Uses of thaxtomin and thaxtomin compositions as herbicides” (priority 2008, dated 2015)

Key:
Assay type in all cases: in vivo
[1] = system: sprangletop: Leptochloa uninervia; assay: Greenhouse study thaxtomin A / sarmentine (Example 9); details: Thaxtomin A 0.2 mg/mL; 25 days after treatment
Protocol: (§1) A strain of S. acidiscabies was grown in oat bran broth for 5 days (25° C., 200 rpm). The whole cell broth was extracted using XAD resin, and the dried crude extract was resuspended in 4% ethanol and 0.2% non-ionic surfactant at a concentration of 10 mg/mL. The diluted extracts containing 0.2 and 0.4 mg thaxtomin A per mL were tested on three weed species (redstem; Ammania spp., smallflower umbrella sedge; Cyperus difformis and sprangletop: Leptochloa uninervia). Other treatments included sarmentine at 2.5 and 5.0 mg/mL, and a combination treatment containing 0.2 mg thaxtomin A and 2.5 mg sarmentine per mL. Each treatment was applied in three replicates. Treated plants were kept in a greenhouse under 12 h light/12 h dark conditions.

redstem; Ammania spp. = assay: as above; details: 25 days after treatment
Protocol: as §1

[2] = system: smallflower umbrella sedge; Cyperus difformis; assay: as above; details: Thaxtomin A 0.2 mg/mL; 25 days after treatment
Protocol: as §1

[3] = system: annual broadleaves, sedges and grasses; assay: Post-emergence spectrum of MBI-005, overall (Example 13); details: unless surfactants are added
Protocol: To further describe the spectrum of post-emergence activity, tests were conducted in laboratory and field conditions. For laboratory testing, 3-10 plants (depending on the species) at the 1-2 leaf stage plants in 2.5 cm square pots containing Sunshine Mix No. 2 planting media were sprayed at 1 mg MBI-005/mL at a rate of 40 gal/A using a cabinet track sprayer. Negative controls were sprayed with water and positive controls with glufosinate. Pots were randomly placed in a growth room at 25° C. and 50% RH, and watered as necessary. Treatments were replicated five times and evaluated at 7 and 14 days for visual % damage, with 0% indicating no damage and 100% indicating plant death.
In field testing, field soil containing weeds at the 1-5 leaf stage were treated with 38.2 L MBI-005/ha at a spray volume of 374 L/ha. Treatments, including water as the negative control and WeedBGon or Preen Broadleaf as the positive control, were replicated four times and applied twice at a four week interval. The positive control on Late watergrass, Ricefield Bulrush, Smallflower sedge and Arrowhead was an herbicide containing as active ingredient 2,4-D and an organosilicone surfactant was added to MBI-005. Treatments were assessed for % control and % ground cover.
Post-emergent control of perennials was generally limited except for Oxalis pes-caprae.

barnyard grass = assay: Post-emergent MBI-005 + rice herbicides on barnyard grass (Example 18); details: 14 days
Protocol: (§2) Ten seedlings in 2.5 cm square pots containing plant growth mix were sprayed to full coverage using a hand sprayer. Negative controls were sprayed with water. Pots were randomly placed in a growth room at 25° C. and 50% RH, and watered as necessary. Treatments were replicated three times and evaluated at 7 and 14 days for visual % damage, with 0% indicating no damage and 100% indicating plant death.
Synergistic effect were noted between MBI-005 and all three rice herbicides, 14 days after treatment. Synergy was calculated as the ratio of observed (E) to expected (E/Ee) percent control using Colby's formula.

[4] = system: Nightshade, Black—Solanum nigrum; assay: Greenhouse weed control by S. acidiscabies extract (Example 4); details: 0.5 mg/mL
Protocol: (§3) A strain of S. acidiscabies (ATCC-49003) is grown in oat bran broth for 5 days (25° C., 200 rpm). The whole cell broth with thaxtomin A is extracted using XAD resin. The dried crude extract was resuspended in 4% ethanol and 0.02% non-ionic surfactant at a concentration of 10 mg/mL, and the solutions with two different concentrations of thaxtomin A (0.5 and 1.0 mg/mL) are tested the following broadleaf weed species:
(§4) All plant species are tested in 4″×4″ plastic pots in three replicates. The untreated control plants are sprayed with the carrier solution (4% Ethanol, 0.02% glycosperse) and the positive control plants with Roundup at a rate corresponding to 1 fl. oz/acre. Treated plants are kept in a greenhouse under 12 h light/12 h dark conditions.

[5] = system: Lambsquarter—Chenopodium album; assay: as above; details: Common lambsquarter; 0.5 mg/mL
Protocol: as §3, §4

[6] = system: small flower umbrella sedge; assay: Post-emergent MBI-005 + rice herbicides on smallflower umbrella sedge (Example 19); details: 14 days
Protocol: as §2, with “Twenty” for “Ten”
(§5) Synergy was calculated as the ratio of observed (E) to expected (E/Ee) percent control using Colby's formula.

[7] = system: Smallflower umbrella sedge; assay: Post-emergent MBI-005 + Thiobencarb on Smallflower umbrella sedge (Example 21); details: 14 days
Protocol: […] Negative controls were sprayed with water. Pots were randomly placed in a growth room at 25° C. and 50% RH, and watered as necessary. Treatments were replicated three times and evaluated at 7 and 14 days for visual % damage, with 0% indicating no damage and 100% indicating plant death.
as §5

[8] = system: corn plants (Zea mays var. Sunglow); assay: Pot study, phytotoxicity on corn (Example 1); details: spray 0.125-1.0 mg thaxtomin A/mL, three weeks after treatment
Protocol: In a pot study test in greenhouse conditions, 6-inch corn plants (Zea mays var. Sunglow) were sprayed with increasing concentrations of thaxtomin A mixed in a carrier 4% ethanol, 0.02% polysorbate 60 POE (20) sorbitan monostearate solution. The spraying solutions contained 0.125, 0.25, 0.5 and 1.0 mg thaxtomin A/mL, and the plants are sprayed until total coverage. Each treatment was done in three replicates, and a control solution consists of water with 4% ethanol and 0.02% polysorbate 60 POE (20) sorbitan monostearate as a surfactant. Prior to and after treatments, plants are grown in a greenhouse under artificial lights (12-h light/dark cycle) at 25° C.
Plants are evaluated in one-week intervals starting at 7 days after treatment.

crabgrass = assay: Greenhouse synergy test MBI-005 + field crop herbicides (Example 11); details: 14 days
Protocol: […] other herbicides commonly used for field crops, glyphosate, glufosinate, synthetic version of bialaphos, and mesotrione were also tested for synergy with MBI-005 on crabgrass and ragweed.
There were 3 replicates per treatment which were sprayed with approximately ⅔ ml per replicate. The treatments were completely randomized and kept in a greenhouse at 25° C. The efficacy was rated at 7 and 14 days post treatment.

CN1C(=O)[C@](O)(Cc2cccc(O)c2)N(C)C(=O)[C@@H]1Cc1c[nH]c2cccc([N+](=O)[O-])c12 [thaxtomin A]
Control of sprangletop (%) [1]: 8.3ab %
Control of redstem (%) (redstem; Ammania spp.; Thaxtomin A 0.2 mg/mL): 5.0b %
Control of redstem (%) (redstem; Ammania spp.; Thaxtomin A 0.4 mg/mL, *stunted): 11.7c* %
Control of sedge (%) [2]: 48.3b %
post-emergent activity [3]: limited post-emergent activity
% Control MBI-005 (barnyard grass; MBI-005 12.5% of the label rate (Penoxsulam line)): 17.5%
% Control MBI-005 (barnyard grass; MBI-005 25% of the label rate (Bispyribac-sodium line)): 41.7%
stunting [4]: severe stunting
stunting [5]: severe stunting
% Control MBI-005 ([6]; MBI-005 0.5% of the label rate (Bispyribac-sodium line)): 3.3%
% Control MBI-005 ([6]; MBI-005 2.0% of the label rate (Penoxsulam line)): 20.0%
% Control MBI-005 ([6]; MBI-005 2.0% of the label rate (Propanil line)): 20.0%
% Control MBI-005 ([6]; MBI-005 2.0% of the label rate (Thiobencarb line)): 20.0%
Observed Average % Efficacy (E) ([7]; first series, 2% MBI-005): 20. %
Observed Average % Efficacy (E) ([7]; first series, .5% MBI-005): 3.3%
Observed Average % Efficacy (E) ([7]; second series, 1% MBI-005): 10.0%
Observed Average % Efficacy (E) ([7]; second series, 2% MBI-005): 79.2%
phytotoxicity [8]: no phytotoxicity is observed
% Control MBI-005 (crabgrass; MBI-005 0.125 mg/mL (glufosinate line)): 20.0%
% Control MBI-005 (crabgrass; MBI-005 0.125 mg/mL (glyphosate line)): 28.3%
